Test results from ChEMBL document CHEMBL1201862, “PubChem BioAssay data set” (2004).
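Dose response: 5 concentrations. Exposure: 48 h. Format: 96-well plates. Endpoint: linear interpolation; highest concentration if not reached. Abbreviation: GI50, concentration required for 50% inhibition of growth.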 Active and inactive are the calls of the source. No stated cut-off is given here; in the data, active = GI50 up to about 1.1 µM and inactive = higher.

Tests used:
Assay in all cases: NCI-60 cell line screen, 48 h
[1] = system: A498
[2] = system: CAKI-1
[3] = system: DU-145
[4] = system: HOP-62
[5] = system: Hs-578T
[6] = system: LOX IMVI
[7] = system: MCF7
[8] = system: MDA-N
[9] = system: MOLT-4
[10] = system: NCI-H23
[11] = system: NCI-H460
[12] = system: OVCAR-4
[13] = system: OVCAR-8
[14] = system: PC-3
[15] = system: SF-268
[16] = system: SF-539
[17] = system: SK-MEL-28
[18] = system: SK-MEL-2
[19] = system: SR
[20] = system: U-251

Measured: GI50

CCOC(=O)Cn1c(=O)ccn(COCCO)c1=O
inactive: [1] > 100 µM | [2] > 100 µM | [3] > 100 µM | [4] > 100 µM | [5] > 100 µM | [6] > 100 µM | [7] > 100 µM | [8] > 100 µM | [9] > 100 µM | [10] > 100 µM | [11] > 100 µM | [12] > 100 µM | [13] > 100 µM | [14] > 100 µM | [15] > 100 µM | [16] > 100 µM | [17] > 100 µM | [18] > 100 µM | [19] > 10 µM | [20] > 100 µM

O=c1cc(O)c2c(O)cc(O)cc2o1
inactive: [1] > 100 µM | [2] > 100 µM | [3] > 100 µM | [4] > 100 µM | [5] > 100 µM | [6] > 100 µM | [7] > 100 µM | [8] > 100 µM | [9] > 100 µM | [10] > 100 µM | [11] > 100 µM | [12] > 100 µM | [13] > 100 µM | [14] > 100 µM | [15] > 100 µM | [16] > 100 µM | [17] > 100 µM | [18] > 100 µM | [19] > 100 µM | [20] > 100 µM

C/C(=N\N)C(CN(C)C)C(c1ccccc1)c1c(O)c2ccccc2oc1=O (stereo not given)
inactive: [1] > 100 µM | [2] > 100 µM | [3] > 100 µM | [4] > 100 µM | [5] > 100 µM | [6] > 94.4 µM | [7] > 100 µM | [8] > 100 µM | [9] > 55.5 µM | [10] > 100 µM | [11] > 100 µM | [12] > 65.6 µM | [13] > 100 µM | [14] > 100 µM | [15] > 100 µM | [16] > 100 µM | [17] > 100 µM | [18] > 100 µM | [19] > 67.1 µM | [20] > 87.1 µM
